# Tests used:
# [1] = cited from earlier work
# [2] = Particle size distribution by dynamic image analysis (Camsizer X2 with X-Jet module); assay type: physicochemical
# Description: Said preferred particle size distribution is determined by means of dynamic image analysis (Camsizer X2 from Retsch with X-Jet module), wherein a dispersion pressure of 5, 20, or 460 kPa was applied. The evaluation was carried out in three size models, namely:
# Xc(min) Particle width which is determined from the narrowest of all measured chords xc;
# XFe(max) Particle length which is determined from the longest of all measured Feret diameters xFe;
# Xarea Equivalent particle diameter which corresponds to the circle equivalent diameter.
compound,measurement,setting,value
C=C1C[C@@]23CC[C@H]4[C@@](C)(CCC[C@@]4(C)C(=O)O[C@@H]4O[C@H](CO)[C@@H](O)[C@H](O)[C@H]4O)[C@@H]2CC[C@]1(O[C@@H]1O[C@H](CO)[C@@H](O)[C@H](O)[C@H]1O[C@@H]1O[C@H](CO)[C@@H](O)[C@H](O)[C@H]1O)C3 [stevioside],Daily intake considered harmless,[1],up to 4 mg per kilogram of body weight
"O=C(CO)C(O)C(O)C(O)CO (stereo not shown) [Comparative Example V1, allulose]",Minimum d10 XFe(max),[2]; dispersion pressure 5 kPa,90 μm
same,Minimum d10 Xarea,[2]; dispersion pressure 5 kPa,75 μm
same,Minimum d10 Xc(min),[2]; dispersion pressure 5 kPa,60 μm
same,Minimum d50 XFe(max),[2]; dispersion pressure 5 kPa,210 μm
same,Minimum d50 Xarea,[2]; dispersion pressure 5 kPa,175 μm
same,Minimum d50 Xc(min),[2]; dispersion pressure 5 kPa,130 μm
same,Minimum d90 XFe(max),[2]; dispersion pressure 5 kPa,320 μm
same,Minimum d90 Xarea,[2]; dispersion pressure 5 kPa,255 μm
same,Minimum d90 Xc(min),[2]; dispersion pressure 5 kPa,215 μm
same,Minimum d10 XFe(max),[2]; dispersion pressure 20 kPa,60 μm
same,Minimum d10 Xarea,[2]; dispersion pressure 20 kPa,50 μm
same,Minimum d10 Xc(min),[2]; dispersion pressure 20 kPa,40 μm
same,Minimum d50 XFe(max),[2]; dispersion pressure 20 kPa,185 μm
same,Minimum d50 Xarea,[2]; dispersion pressure 20 kPa,170 μm
same,Minimum d50 Xc(min),[2]; dispersion pressure 20 kPa,110 μm
same,Minimum d90 XFe(max),[2]; dispersion pressure 20 kPa,315 μm
same,Minimum d90 Xarea,[2]; dispersion pressure 20 kPa,250 μm
same,Minimum d90 Xc(min),[2]; dispersion pressure 20 kPa,210 μm
same,Minimum d10 XFe(max),[2]; dispersion pressure 460 kPa,1 μm
same,Minimum d10 Xarea,[2]; dispersion pressure 460 kPa,2 μm
same,Minimum d10 Xc(min),[2]; dispersion pressure 460 kPa,2 μm
same,Minimum d50 XFe(max),[2]; dispersion pressure 460 kPa,55 μm
same,Minimum d50 Xarea,[2]; dispersion pressure 460 kPa,40 μm
same,Minimum d50 Xc(min),[2]; dispersion pressure 460 kPa,30 μm
same,Minimum d90 XFe(max),[2]; dispersion pressure 460 kPa,150 μm
same,Minimum d90 Xarea,[2]; dispersion pressure 460 kPa,110 μm
same,Minimum d90 Xc(min),[2]; dispersion pressure 460 kPa,110 μm
"O=C(CO)C(O)C(O)C(O)CO (stereo not shown) [Example 1, allulose]",Minimum d10 XFe(max),[2]; dispersion pressure 5 kPa,105 μm
same,Minimum d10 Xarea,[2]; dispersion pressure 5 kPa,90 μm
same,Minimum d10 Xc(min),[2]; dispersion pressure 5 kPa,72 μm
same,Minimum d50 XFe(max),[2]; dispersion pressure 5 kPa,230 μm
same,Minimum d50 Xarea,[2]; dispersion pressure 5 kPa,190 μm
same,Minimum d50 Xc(min),[2]; dispersion pressure 5 kPa,150 μm
same,Minimum d90 XFe(max),[2]; dispersion pressure 5 kPa,350 μm
same,Minimum d90 Xarea,[2]; dispersion pressure 5 kPa,270 μm
same,Minimum d90 Xc(min),[2]; dispersion pressure 5 kPa,235 μm
same,Minimum d10 XFe(max),[2]; dispersion pressure 20 kPa,75 μm
same,Minimum d10 Xarea,[2]; dispersion pressure 20 kPa,75 μm
same,Minimum d10 Xc(min),[2]; dispersion pressure 20 kPa,55 μm
same,Minimum d50 XFe(max),[2]; dispersion pressure 20 kPa,220 μm
same,Minimum d50 Xarea,[2]; dispersion pressure 20 kPa,195 μm
same,Minimum d50 Xc(min),[2]; dispersion pressure 20 kPa,125 μm
same,Minimum d90 XFe(max),[2]; dispersion pressure 20 kPa,335 μm
same,Minimum d90 Xarea,[2]; dispersion pressure 20 kPa,280 μm
same,Minimum d90 Xc(min),[2]; dispersion pressure 20 kPa,225 μm
same,Minimum d10 XFe(max),[2]; dispersion pressure 460 kPa,10 μm
same,Minimum d10 Xarea,[2]; dispersion pressure 460 kPa,12 μm
same,Minimum d10 Xc(min),[2]; dispersion pressure 460 kPa,12 μm
same,Minimum d50 XFe(max),[2]; dispersion pressure 460 kPa,70 μm
same,Minimum d50 Xarea,[2]; dispersion pressure 460 kPa,55 μm
same,Minimum d50 Xc(min),[2]; dispersion pressure 460 kPa,45 μm
same,Minimum d90 XFe(max),[2]; dispersion pressure 460 kPa,175 μm
same,Minimum d90 Xarea,[2]; dispersion pressure 460 kPa,135 μm
same,Minimum d90 Xc(min),[2]; dispersion pressure 460 kPa,135 μm

# — patent publication US20230139835A1, “ALLULOSE IN CRYSTALLINE FORM” (SAVANNA INGREDIENTS GMBH, priority 2020, published 2023)
